Test results: article PMC10714399, “Open Source Antibiotics: Simple Diarylimidazoles Are Potent against Methicillin-Resistant Staphylococcus aureus” (ACS Infectious Diseases, 2023)

Molecular target: T1, kinases of HEK293 cell lysate (TGFBR1) (Homo sapiens, UniProt P36897)
T1 construct: endogenous in cells; host or cells: HEK293 cell lysate
Experiment: MIB-MS kinase competition assay in HEK293 cell lysate
Type: binding
Conditions: 1 μM
Experimental: To understand the mammalian toxicity of these diarylimidazole derivatives and to aid in future compound design, we experimentally investigated the potential series’ mechanism of action (MoA). […] This affinity composition assay has proven to be a useful approach to validate kinase inhibitor selectivity. […] Whether the inhibition of TGF-β1 contributes to the cytotoxicity observed remains to be determined.
Following a brief incubation with these compounds, lysates were passed over MIBs (see Supporting Information - Biology), and the captured kinases were identified and quantified by mass spectrometry. Displaced kinases are shown to the left of the center line at the designated doses.
Differential abundance (increase or decrease in MIB binding) was determined for kinases identified. The mass spectrometry proteomics data have been deposited to the ProteomeXchange Consortium via the PRIDE[43] partner repository with the dataset identifier PXD040208.
EphB2 TRKB FGFR1 FGFR4 EphB2 TRKB FGFR1 FGFR4
EphA5 EphB1 ROR2 FLT1 FmS/CSFR EphA5 EphB1 ROR2 FLT1 FmS/CSFR
MUSK ROR1Ret Kit MUSK ROR1Ret Kit
EphB3 DDR2 Mer EphB3 DDR2 Mer
EphA3EphA4 DDR1 Axl Tyro/SkyFLT4 PDGFRα EphA3EphA4 DDR1 AxlTyro/SkyFLT4 PDGFRα
IRR FLT3PDGFRβ IRR FLT3PDGFRβ
EphA6 IGF1R HER2 EphA6 IGF1R HER2
Yes InSR Met EGFR Yes InSR Met EGFR
Branch Color Src EphB4 Ron MLK3 Branch Color Src EphB4 Ron MLK3
Lyn EphA7 ALK TIE2 Lyn EphA7 ALK TIE2 […]

T1 sequence (P36897 34-503): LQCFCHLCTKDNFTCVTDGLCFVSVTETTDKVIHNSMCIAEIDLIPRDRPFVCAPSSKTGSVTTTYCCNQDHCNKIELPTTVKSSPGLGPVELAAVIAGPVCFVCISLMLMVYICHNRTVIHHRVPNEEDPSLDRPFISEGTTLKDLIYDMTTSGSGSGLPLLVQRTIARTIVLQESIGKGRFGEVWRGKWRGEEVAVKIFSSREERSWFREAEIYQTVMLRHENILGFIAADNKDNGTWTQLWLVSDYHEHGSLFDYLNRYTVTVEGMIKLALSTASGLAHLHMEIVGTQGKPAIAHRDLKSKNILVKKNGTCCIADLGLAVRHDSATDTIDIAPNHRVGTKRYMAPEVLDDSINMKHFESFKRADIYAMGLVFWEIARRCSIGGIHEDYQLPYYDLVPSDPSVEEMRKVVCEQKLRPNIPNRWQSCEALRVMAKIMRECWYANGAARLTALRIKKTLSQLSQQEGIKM

c1ccc(-c2nc3n(c2-c2ccc4sccc4c2)CCC3)nc1 [compound 822] was tested, and the “competition of kinases (TGFBR1) off MIBs” value was “selectively competed off MIBs”.
